Measurements taken from US10322191B2, “Targeted conjugates and particles and formulations thereof” (TARVEDA THERAPEUTICS, INC., priority 2014, dated 2019).
Where two headings read alike, the source gives them in different places.

Tests used:
[1] = system: NCI-H69 SCLC (small cell lung cancer) tumors; experiment: H69 tumor DM-1 levels by LC/MS-MS; assay type: in vivo, mice; settings: 24 hour time point; dosed at 1 mg/kg (conjugates, nanoparticles) or 0.4 mg/kg for DM-1
Experimental: To examine the ability of conjugates of the present invention to accumulate in tumors, a murine cancer model was used. All mice were treated in accordance with the OLAW Public Health Service Policy on Human Care and Use of Laboratory Animals and the ILAR Guide for the Care and Use of Laboratory Animals. All in vivo studies were conducted following the protocols approved by the Blend Therapeutics Institutional Animal Care and Use Committee. Animals were inoculated with 2.5×10{circumflex over (0)}6 NCI-H69 SCLC (small cell lung cancer) cells in 1:1 RPMI 1640 (Invitrogen, Carlsbad, Calif.)/Matrigel® (BD Biosciences, San Jose, Calif.) via subcutaneous injection to the right flank. Tumors were allowed to reach an approximate volume of ˜500 mm3. Animals were then randomized into treatment groups of 3 animals per time point and were dosed at 1 mg/kg (10% propylene glycol in water for injection for free conjugates, or 10% sucrose for nanoparticles), or 0.4 mg/kg for DM-1 (10% propylene glycol in water for injection). The 24 hour time point was used as a benchmark across conjugates.
Tumor DM-1 levels were determined by liquid chromatography mass spectrometry (LC/MS-MS). Four volumes of 5 mM 6-maleimidohexanoic acid to 1 part tumor v/w was added and homogenized for about 10-15 seconds with a handheld homogenizer. 10 μL of 500 mM Tris(2-carboxyethyl)phosphine was added to 100 uL of tumor homogenate, mixed well and incubated at room temperature for about 5-15 min. 200-300 uL of acetonitrile was used to precipitate proteins in tumor homogenate, samples were centrifuged for 5 min, and supernatant was injected onto LC/MS-MS system for DM-1 analysis.

[2] = system: NCI-H524 (ATCC) human lung cancer cells; assay type: cell-based; settings: for IC50: Table 15
Experimental: Conjugates were assessed in an in vitro assay evaluating inhibition of cell proliferation. NCI-H524 (ATCC) human lung cancer cells were plated in 96 well, V-bottomed plates (Costar) at a concentration of 5,000 cells/well and 24 hours later were treated with compound for 2 hours and further incubated 70 hours. Compound starting dose was 20 μM and three-fold serial dilutions were done for a total of ten points. After 2 hours of treatment, cells were spun down, the drug containing media was removed, and fresh complete medium was added and used to resuspend the cells, which were spun again. After removal of the wash media, the cells were resuspended in complete medium, then transferred into white walled, flat bottomed 96 well plates. […] Proliferation was measured using CellTiter Glo reagent using the standard protocol (Promega) and a Glomax multi+detection system (Promega). Percent proliferation inhibition was calculated using the following formula: % inhibition=(control-treatment)/control*100. Control is defined as vehicle alone. IC50 curves were generated using the nonlinear regression analysis (four parameter) with GraphPad Prism 6.
Conjugates of the present invention were assessed in an in vitro assay evaluating inhibition of cell proliferation. NCI-H524 (ATCC) human lung cancer cells were plated in 96 well, V-bottomed plates (Costar) at a concentration of 5,000 cells/well. 24 hours later, cells were treated with either conjugate for 2 hours and further incubated 70 hours, or for octreotide competition experiments, treated with 100 μM octreotide for 30 min, and then treated with conjugate for 2 hours, and further incubated for 70 hours. Conjugate starting dose was 20 μM and three fold serial dilutions were done for a total of ten points. After 2 hours of treatment, cells were spun down, the drug containing media was removed, and fresh complete medium was added and used to resuspend the cells, which were spun again. After removal of the wash media, the cells were resuspended in complete medium, then transferred into white walled, flat bottomed 96 well plates. […] Proliferation was measured using CellTiter Glo reagent using the standard protocol (Promega) and a Glomax multi+detection system (Promega). Percent proliferation inhibition was calculated using the following formula: % inhibition=(control-treatment)/control*100. Control is defined as vehicle alone. IC50 curves were generated using the nonlinear regression analysis (four parameter) with GraphPad Prism 6.
Conjugates of the present invention were tested for their activity dependence on the somatostatin receptor. Active agent Z in the conjugate was selected from auristatin, carbazitaxel, DM1, doxorubicin, platinum, SN-38 and vinblastine. Active agent Z is connected to octreotide with various linkers. Proliferation IC50 values of the conjugates were measured. Proliferation IC50 values of the conjugates without octreotide competition were also measured. The ratio of IC50 with octreotide competition and IC50 without octreotide competition is an indicator of whether activity is at least partially dependent on bind to the somatostatin receptor.

[3] = treated 2 hours, further incubated 70 hours, read-out: H524 IC50
[4] = read-out: H524 IC50+ 100 uM octreotide, 100 μM octreotide for 30 min, then conjugate 2 hours, 70 hours incubation

SMILES: COc1cc2cc(c1Cl)N(C)C(=O)C[C@H](OC(=O)[C@H](C)N(C)C(=O)CCSSCCNC(=O)CC[C@H]1C(=O)N[C@@H](Cc3ccc(O)cc3)C(=O)N[C@H](Cc3c[nH]c4ccccc34)C(=O)N[C@@H](CCCCN)C(=O)N[C@@H]([C@@H](C)O)C(=O)N[C@@H](Cc3ccccc3)C(=O)N1C)[C@]1(C)O[C@H]1[C@H](C)[C@@H]1C[C@@](O)(NC(=O)O1)[C@H](OC)/C=C/C=C(\C)C2 [Conjugate 14]
- H69 tumor DM-1 levels [1]: 70.1 nM
- IC50 [2, 3]: 298 nM
- IC50 [2, 4]: 877 nM

SMILES: COc1cc2cc(c1Cl)N(C)C(=O)C[C@H](OC(=O)[C@H](C)N(C)C(=O)CCSSC[C@H](NC(=O)CC[C@H]1C(=O)N[C@@H](Cc3ccc(O)cc3)C(=O)N[C@H](Cc3c[nH]c4ccccc34)C(=O)N[C@@H](CCCCN)C(=O)N[C@@H]([C@@H](C)O)C(=O)N[C@@H](Cc3ccccc3)C(=O)N1C)C(=O)NC(C)(C)CC(C)(C)C)[C@]1(C)O[C@H]1[C@H](C)[C@@H]1C[C@@](O)(NC(=O)O1)[C@H](OC)/C=C/C=C(\C)C2 [Conjugate 16]
- H69 tumor DM-1 levels [1]: 96.4 nM
- IC50 [2, 3]: 223 nM
- IC50 [2, 4]: 398 nM

SMILES: COc1cc2cc(c1Cl)N(C)C(=O)C[C@H](OC(=O)[C@H](C)N(C)C(=O)CCSSCCC(=O)NCCCOCCOCCOCCCNC(=O)CC[C@H]1C(=O)N[C@@H](Cc3ccc(O)cc3)C(=O)N[C@H](Cc3c[nH]c4ccccc34)C(=O)N[C@@H](CCCCN)C(=O)N[C@@H]([C@@H](C)O)C(=O)N[C@@H](Cc3ccccc3)C(=O)N1C)[C@]1(C)O[C@H]1[C@H](C)[C@@H]1C[C@@](O)(NC(=O)O1)[C@H](OC)/C=C/C=C(\C)C2 [Conjugate 18]
- H69 tumor DM-1 levels [1]: 86.3 nM
- IC50 [2, 3]: 1480 nM
- IC50 [2, 4]: 2160 nM

SMILES: CCCCN(CCSSCCC(=O)N(C)[C@@H](C)C(=O)O[C@H]1CC(=O)N(C)c2cc(cc(OC)c2Cl)C/C(C)=C/C=C/[C@@H](OC)[C@@]2(O)C[C@H](OC(=O)N2)[C@@H](C)[C@@H]2O[C@@]12C)C(=O)CC[C@H]1C(=O)N[C@@H](Cc2ccc(O)cc2)C(=O)N[C@H](Cc2c[nH]c3ccccc23)C(=O)N[C@@H](CCCCN)C(=O)N[C@@H]([C@@H](C)O)C(=O)N[C@@H](Cc2ccccc2)C(=O)N1C [Conjugate 22]
- H69 tumor DM-1 levels [1]: 145 nM
- IC50 [2, 3]: 332 nM
- IC50 [2, 4]: 741 nM

SMILES: COc1cc2cc(c1Cl)N(C)C(=O)C[C@H](OC(=O)[C@H](C)N(C)C(=O)CCSSCCNC(=O)[C@@H](NC(=O)[C@@H]1CSSC[C@H](NC(=O)[C@H](N)Cc3ccccc3)C(=O)N[C@@H](Cc3ccc(O)cc3)C(=O)N[C@H](Cc3c[nH]c4ccccc34)C(=O)N[C@@H](CCCCN)C(=O)N[C@@H]([C@@H](C)O)C(=O)N1)[C@@H](C)O)[C@]1(C)O[C@H]1[C@H](C)[C@@H]1C[C@@](O)(NC(=O)O1)[C@H](OC)/C=C/C=C(\C)C2 [Conjugate 35]
- H69 tumor DM-1 levels [1]: 23.2 nM
- IC50 [2, 3]: 253 nM
- IC50 [2, 4]: 1000 nM

SMILES: CCCCCCCCN[C@H](Cc1ccccc1)C(=O)N[C@H]1CSSC[C@@H](C(=O)N[C@H](C(=O)NCCSSCCC(=O)N(C)[C@@H](C)C(=O)O[C@H]2CC(=O)N(C)c3cc(cc(OC)c3Cl)C/C(C)=C/C=C/[C@@H](OC)[C@@]3(O)C[C@H](OC(=O)N3)[C@@H](C)[C@@H]3O[C@@]23C)[C@@H](C)O)NC(=O)[C@H]([C@@H](C)O)NC(=O)[C@H](CCCCN)NC(=O)[C@@H](Cc2c[nH]c3ccccc23)NC(=O)[C@H](Cc2ccc(O)cc2)NC1=O [Conjugate 55]
- H69 tumor DM-1 levels [1]: 95.3 nM
- IC50 [2, 3]: 47 nM
- IC50 [2, 4]: 395 nM

SMILES: COc1cc2cc(c1Cl)N(C)C(=O)C[C@H](OC(=O)[C@H](C)N(C)C(=O)CCSSC[C@H](NC(=O)[C@@H]1CSSC[C@H](NC(=O)[C@H](N)Cc3ccccc3)C(=O)N[C@@H](Cc3ccc(O)cc3)C(=O)N[C@H](Cc3c[nH]c4ccccc34)C(=O)N[C@@H](CCCCN)C(=O)N[C@@H]([C@@H](C)O)C(=O)N1)C(N)=O)[C@]1(C)O[C@H]1[C@H](C)[C@@H]1C[C@@](O)(NC(=O)O1)[C@H](OC)/C=C/C=C(\C)C2 [Conjugate 57]
- H69 tumor DM-1 levels [1]: 243 nM
- IC50 [2, 3]: 136 nM
- IC50 [2, 4]: 1650 nM

SMILES: COc1cc2cc(c1Cl)N(C)C(=O)C[C@H](OC(=O)[C@H](C)N(C)C(=O)CCSSCCCN[C@H](Cc1ccccc1)C(=O)N[C@H]1CSSC[C@@H](C(=O)N[C@H](C(=O)O)[C@@H](C)O)NC(=O)[C@H]([C@@H](C)O)NC(=O)[C@H](CCCCN)NC(=O)[C@@H](Cc3c[nH]c4ccccc34)NC(=O)[C@H](Cc3ccc(O)cc3)NC1=O)[C@]1(C)O[C@H]1[C@H](C)[C@@H]1C[C@@](O)(NC(=O)O1)[C@H](OC)/C=C/C=C(\C)C2 [Conjugate 80]
- H69 tumor DM-1 levels [1]: 91.2 nM
- IC50 [2, 3]: 152 nM
- IC50 [2, 4]: 157 nM

SMILES: COc1cc2cc(c1Cl)N(C)C(=O)C[C@H](OC(=O)[C@H](C)N(C)C(=O)CCSSCCOc1ccc(C[C@@H](N)C(=O)N[C@H]3CSSC[C@@H](C(=O)N[C@H](C(=O)O)[C@@H](C)O)NC(=O)[C@H]([C@@H](C)O)NC(=O)[C@H](CCCCN)NC(=O)[C@@H](Cc4c[nH]c5ccccc45)NC(=O)[C@H](Cc4ccc(O)cc4)NC3=O)cc1)[C@]1(C)O[C@H]1[C@H](C)[C@@H]1C[C@@](O)(NC(=O)O1)[C@H](OC)/C=C/C=C(\C)C2 [Conjugate 111]
- H69 tumor DM-1 levels [1]: 82.6 nM
- IC50 [2, 3]: 123 nM
- IC50 [2, 4]: 742 nM

SMILES: COc1cc2cc(c1Cl)N(C)C(=O)C[C@H](OC(=O)[C@H](C)N(C)C(=O)CCSSCCC(=O)NCCCC[C@@H](N)C(=O)N[C@H]1CSSC[C@@H](C(=O)N[C@H](C(=O)O)[C@@H](C)O)NC(=O)[C@H]([C@@H](C)O)NC(=O)[C@H](CCCCN)NC(=O)[C@@H](Cc3c[nH]c4ccccc34)NC(=O)[C@H](Cc3ccc(O)cc3)NC1=O)[C@]1(C)O[C@H]1[C@H](C)[C@@H]1C[C@@](O)(NC(=O)O1)[C@H](OC)/C=C/C=C(\C)C2 [Conjugate 113]
- IC50 [2, 3]: 1080 nM
- IC50 [2, 4]: 4920 nM

SMILES: COc1cc2cc(c1Cl)N(C)C(=O)C[C@H](OC(=O)[C@H](C)N(C)C(=O)CCSSCCC(=O)NCc1ccc(C[C@@H](N)C(=O)N[C@H]3CSSC[C@@H](C(=O)N[C@H](C(=O)O)[C@@H](C)O)NC(=O)[C@H]([C@@H](C)O)NC(=O)[C@H](CCCCN)NC(=O)[C@@H](Cc4c[nH]c5ccccc45)NC(=O)[C@H](Cc4ccc(O)cc4)NC3=O)cc1)[C@]1(C)O[C@H]1[C@H](C)[C@@H]1C[C@@](O)(NC(=O)O1)[C@H](OC)/C=C/C=C(\C)C2 [Conjugate 115]
- H69 tumor DM-1 levels [1]: 37.1 nM
- IC50 [2, 3]: 327 nM
- IC50 [2, 4]: 1500 nM

SMILES: COc1cc2cc(c1Cl)N(C)C(=O)C[C@H](OC(=O)[C@H](C)N(C)C(=O)CCSSC[C@@H](N)C(=O)N[C@H]1CSSC[C@@H](C(=O)N[C@H](C(=O)O)[C@@H](C)O)NC(=O)[C@H]([C@@H](C)O)NC(=O)[C@H](CCCCN)NC(=O)[C@@H](Cc3c[nH]c4ccccc34)NC(=O)[C@H](Cc3ccc(O)cc3)NC1=O)[C@]1(C)O[C@H]1[C@H](C)[C@@H]1C[C@@](O)(NC(=O)O1)[C@H](OC)/C=C/C=C(\C)C2 [Conjugate 119]
- IC50 [2, 3]: 2660 nM
- IC50 [2, 4]: > 5000 nM

SMILES: C[C@@H](O)[C@@H]1NC(=O)[C@H](CCCCN)NC(=O)[C@@H](Cc2c[nH]c3ccccc23)NC(=O)[C@H](Cc2ccccc2)NC(=O)[C@@H](NC(=O)[C@H](N)Cc2ccccc2)CSSC[C@@H](C(=O)N[C@H](CO)[C@@H](C)O)NC1=O [Octreotide, octreotide, reference compound]
- effect on cell proliferation ([2]; octreotide alone): no significant effect
